From US20240217950A1, “PESTICIDALLY ACTIVE CYCLIC AMINE COMPOUNDS” (SYNGENTA CROP PROTECTION AG, priority 2021, published 2024)

Test system: Tetranychus urticae (Two-Spotted Spider Mite)
Assay: Tetranychus urticae (two-spotted spider mite) feeding/contact activity on bean leaf discs
Format: in vivo
Conditions: foliar, 192 h, application rate of 200 ppm, sprayed bean leaf discs, mixed population (mobile stages), 8 days after infestation
Protocol: Example B1: Tetranychus urticae (Two-Spotted Spider Mite)
Feeding/contact activity Bean leaf discs on agar in 24-well microtiter plates were sprayed with aqueous test solutions prepared from 10′000 ppm DMSO stock solutions. After drying the leaf discs were infested with a mite population of mixed ages. The samples were assessed for mortality on mixed population (mobile stages) 8 days after infestation.

SMILES: COCc1nc(OCc2cc(C(F)(F)F)ccc2F)c(C#N)cc1C(=O)N1CCC(c2noc(C)n2)CC1 [Compound P1.2, 2-[[2-fluoro-5-(trifluoromethyl)phenyl]methoxy]-6-(methoxymethyl)-5-[4-(5-methyl-1,2,4-oxadiazol-3-yl)piperidine-1-carbonyl]pyridine-3-carbonitrile]
- mortality at 200 ppm: ≥ 80%
